From patent publication US20250222109A1, “STRUCTURED LIPID COMPOSITIONS” (Universität Bern, priority 2022, published 2025)
Where a name gives a salt, the structure may show the parent alone.

How the values were obtained:
[1] = SAXS phase identification of MLO-water mesophases (TIF-Gel); type: physicochemical
Procedure: SAXS measurements were used to determine the phase identity and symmetry of the produced LMPs. Measurements were performed on a Bruker AXS Micro, with a microfocused X-ray source, operating at voltage and filament current of 50 kV and 1000 μA, respectively. The Cu Kα radiation (λCu Kα=1.5418 Å) was collimated by a 2D Kratky collimator, and the data were collected by a 2D Pilatus 100K detector. The scattering vector Q=(4π/λ) sin θ, with 2θ being the scattering angle, was calibrated using silver behenate. Data were collected and azimuthally averaged using the Saxsgui software to yield 1D intensity vs. scattering vector Q, with a Q range from 0.001 to 0.5 Å^−1. For all measurements the samples were placed inside a stainless-steel cell between two thin replaceable mica sheets and sealed by an O-ring, with a sample volume of 10 μL and a thickness of ˜1 mm. Measurements were performed at 25° C., 30° C., 34° C., 36° C. and 38° C. Samples were equilibrated for 10 min before measurements whereas scattered intensity was collected over 30 min and over 60 min in case of lamellar phase. On the other hand, for the kinetic study, the sample was pre equilibrated at 25° C. and inserted in the sample holder kept at 38° C. and the scattered intensity collected over 5 min. To determine the structural parameters such as the size of the water channels, SAXS data information on the lattice were combined with the composition of the samples (R. Mezzenga, et al., Shear rheology of lyotropic liquid crystals: a case study, Langmuir 21, 3322-3333 (2005)).
MLO was used as the lipid component of the mesophases and mixed with weighed amounts of drugs (10% w/w) in sealed Pyrex tubes and alternatively centrifuging (10 min, 5000 g) several times at room temperature until a homogenous mixture was obtained. The mesophase was then equilibrated for 48 h at room temperature in the dark (see, FIGS. 1A and 1B).
Firstly, small angle X-ray scattering (SAXS) measurements were used to determine the optimal amount of water needed to obtain a lamellar phase which provides a transition to a cubic at 38° C. (FIGS. 2B and 2C). The X-ray beam directed at the gel results in a scattering pattern with a set of maxima, that correspond to sharp Bragg reflections characteristic of the long-range positional order. The sequence of Bragg reflections (and their ratio; listed in FIG. 2A) identifies the symmetry of the mesophase studied (See also FIGS. 1A and 1B).

[2] = In vitro release of TOFA and TAC from TIF-Gel, vertical diffusion cells; type: physicochemical; conditions: HEPES pH 7.4, 37° C., 8 h
Excerpt: In the in vitro release experiments, drug-loaded TIF-Gel formulations were placed in the donor chamber of a vertical diffusion cell (as depicted in FIG. 3G) and kept separated from the acceptor chamber by a polycarbonate membrane with pore diameter of 3 μm, which allows the passage of the free drugs only.

[3] = Drug encapsulation and distribution in TIF-Gel (WAXS, HPLC of gel layers); type: physicochemical
Procedure: The tube was centrifuged and kept at rest for 24 hours. Subsequently, the gel was divided into 3 different layers (Top, Middle, and Bottom), and the drug content evaluated in each by HPLC.
WAXS measurements were performed on a Bruker AXS Micro, with a microfocused X-ray source, operating at voltage and filament current of 50 kV and 1000 μA, respectively. The Cu Kα radiation (λCu Kα=1.5418 Å) was collimated by a 2D Kratky collimator, and the data were collected by a 2D Pilatus 100K detector. The scattering vector Q=(4π/λ) sin θ, with 2θ being the scattering angle, was calibrated using silver behenate. Data were collected and azimuthally averaged using the Saxsgui software to yield 1D intensity vs. scattering vector Q, with a Q range from 13 to 18 nm-1. For all measurements the samples were placed inside a stainless-steel cell between two thin replaceable mica sheets and sealed by an O-ring, with a sample volume of 10 μL and a thickness of ˜1 mm.
The TAC loaded mesophase composition comprised: a) a carrier comprising: a1) water in an amount of 16% by weight of the carrier; and a2) MLO in an amount of 84% by weight of the carrier; and b) TAC in an amount of 1% by weight of the composition.

[4] = system: dextran sulfate sodium (DSS)-induced acute colitis; test: Chemically induced colitis based on application of DSS; type: in vivo, mice
Excerpt: Female 6-8 week-old C57B/6J Mice (ex. Charles River Germany) were maintained under specific and opportunistic pathogen-free (SOPF) microbiota conditions at the animal facility of the University of Bern. Mice were ear marked, randomly assigned to different cages and treatment groups, and bedding mixed between all cages to avoid potential cage effects on microbiota. All methods used were approved by the Bernese animal welfare authority (permission no. BE 20/18). […] The next day, mouse drinking water was supplemented with 2% w/v dextran sodium sulfate (DSS; MP Biomedicals, 160110). Every other day, the different compounds were applied intra-rectally until the end of the experiment. During the experiment, the mice were constantly monitored and the weight and disease scores were recorded when appropriate. Disease score was determined by grading of 1-4 of the following criteria (with grade 4 corresponding to most unhealthy/abnormal): posture, mobility, fur appearance, weight, stool consistency, and stool colour (L. F. Mager, et al., The ESRP1-GPR137 axis contributes to intestinal pathogenesis, Elife 6 (2017), doi: 10.7554/eLife.28366.). […]
The gating strategy was adapted from the inventors previously published work (S. E. Liyanage, et al., Flow cytometric analysis of inflammatory and resident myeloid populations in mouse ocular inflammatory models, Exp. Eye Res. 151, 160-170 (2016)). […] Splenocytes were quantified using a CASY cell counter (Omni Life Sciences) and the following populations were quantified following single cell and live/dead selection (Thermofischer, L34961). […] Stained cells were analysed on a BD Bioscience LSR II SORP flow cytometer.
DSS is toxic to epithelial cells and its application compromises the integrity of the intestinal barrier, thereby leading to activation of submucosal immune cells by intestinal microbes. Through experimentation, it was determined that bi-daily application of the gel yielded robust mitigation of local and systemic inflammation.

[5] = Stability study of TAC and TOFA-loaded TIF-Gel (HPLC); type: physicochemical; conditions: 4° C. and 25° C., one-month period
Procedure: The TAC and TOFA-loaded TIF-Gels were prepared according to Example 1. […] The TAC-loaded TIF-Gel composition comprised a) a carrier comprising: a1) water in an amount of 16% by weight of the carrier; and a2) MLO in an amount of 84% by weight of the carrier; and b) TAC in an amount of 1% by weight of the composition. […] At specific time points, an aliquot of the formulation was analysed at the HPLC, and the content of the drug was recorded. Data are expressed as relative percentage referred to day 0.

[6] = SAXS phase identification of MLO-water mesophases (TIF-Gel); type: physicochemical; conditions: 5 mg of TOFA and 1 mg of TAC in 100 mg of gel
[7] = rectal, every other day, vs empty TIF-Gel

| phase identity (SAXS) ([1]; 12% of water, 25° C. and 38° C.) | phase identity (SAXS) ([1]; 14% of water, 25° C.) | phase identity (SAXS) ([1]; 16% w/w of water and 84% w/w of MLO, 25° C.) | phase identity (SAXS) ([1]; 16% w/w of water and 84% w/w of MLO, 38° C.) | temperature of the L→Q transition ([1]; 18% w/w of water) | phase transition in the presence of lipase ([1]; lipase 1000 U/mL) | time of conversion of precursor L phase into the cubic phase ([1]; once applied into the rectum) | drug release from the gel vs free drug, in vitro [2] | distribution of drug in the gel matrix ([3]; Top, Middle and Bottom gel layers, HPLC) | drug crystallisation in the gel (WAXS) ([3]; embedded in the 3D gel structure) | encapsulation efficacy ([3]; encapsulated in the TIF-Gel) | long-term stability of drug loaded into TIF-gel (drug content by HPLC) [5] | SMILES | phase identity (SAXS) ([1]; 14% of water, 38° C.) | effect of drug on phase identity and transition temperature of the gel ([1]; 10% w/w of drug, lamellar at room temperature, cubic (Ia3d) at 38° C.) | local pro-inflammatory cytokine levels ([4]; colon tissue) | disease score / disease severity [4, 7] | weight loss [4, 7] | effect of drug entrapment on phase identity and thermal behaviour of the carrier gel [6] |
| --- | --- | --- | --- | --- | --- | --- | --- | --- | --- | --- | --- | --- | --- | --- | --- | --- | --- | --- |
| L phase | lamellar structure | lamellar structure | Q structure (with a Ia3d geometry) | 30 °C | Q→Hexagonal phase (H) | < 5 min |  |  |  |  |  | CCCCC/C=C\C/C=C\CCCCCCCC(=O)OCC(O)CO (stereo not drawn) [MLO, 2,3-dihydroxypropyl(9Z,12Z)-9,12-octadecadienoate] | coexistence of L and Q structure (with a Ia3d geometry) |  |  |  |  |  |
|  |  |  |  |  |  |  | decreased the release rate | homogeneously distributed | do not form crystals | 100% | stable | C[C@@H]1CCN(C(=O)CC#N)C[C@@H]1N(C)c1ncnc2[nH]ccc12 [TOFA, Tofacitinib citrate] |  | did not affect the phase identity and the transition temperature | reduced | did not improve the disease score | improving weight loss | did not affect the phase identity and thermal behaviour |
